For orientation: IC50 means the concentration that inhibits the measured activity by half.

Structures are written as SMILES. Structures can show the parent of a compound that is named as a salt.

Among the data in article PMC6849653, “Volasertib preclinical activity in high-risk hepatoblastoma” (Oncotarget, 2019) are IC50 values, retold here.

Holding throughout (assay type): cell-based
The subject of one experiment is Huh-6. Briefly: 60-agent chemical screen, cell viability (Cell-Titer Glo), Huh-6. Conditions: Homo sapiens, 60-agent screen, 72 hours, a value of 10,000 indicates that the drug did not inhibit viability, read-out: absolute IC50, Huh-6.
The subject of the next experiment is HepG2. The experiment can be described thus: 60-agent chemical screen, cell viability (Cell-Titer Glo), HepG2.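 Further: luminescence read-out in 384-well plates, with cells plated directly onto drug dilutions of known concentration.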 Conditions: Homo sapiens, 60-agent screen, 72 hours, a value of 10,000 indicates that the drug did not inhibit viability, read-out: absolute IC50, HepG2.
The subject of the next experiment is HB-214. The experiment can be described thus: 60-agent chemical screen, cell viability (Cell-Titer Glo), HB-214.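 Further: viability read as luminescence once Cell-Titer Glo 2.0 reagent was added to drug-treated cells in 384-well plates.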 As to conditions: Homo sapiens; 60-agent screen, 72 hours; a value of 10,000 indicates that the drug did not inhibit viability; read-out: absolute IC50, HB-214.
In the next experiment the test system is normal human hepatocytes. Briefly: 60-agent chemical screen, cell viability (Cell-Titer Glo), hepatocytes.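 Further: cells were plated onto pre-diluted drug concentrations in 384-well plates, and viability was read after 72 h as CellTiter-Glo 2.0 luminescence.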 Conditions: Hepatocyte, 60-agent screen, 72 hours, a value of 10,000 indicates that the drug did not inhibit viability, read-out: absolute IC50, Hepatocytes.

Description for HB-214: (§1) On day 0, cells were trypsinized and plated into a white walled 384-well plate containing pre-diluted known concentrations of various drugs. After 72 hours, an equal volume of Cell-Titer Glo 2.0 (G9243, Promega) was added to each well, incubated at room temperature while rocking in the dark for 15 minutes, followed by luminescence acquisition with a BioTek Synergy HT plate reader (BioTek, Winooski, VT).
Description for HepG2: as §1
Description for Huh-6: as §1
Description for normal human hepatocytes: as §1

Consider `CC1(C)CCC(c2ccc(Cl)cc2)=C(CN2CCN(c3ccc(C(=O)NS(=O)(=O)c4ccc(N[C@H](CCN5CCOCC5)CSc5ccccc5)c(S(=O)(=O)C(F)(F)F)c4)cc3)CC2)C1` [ABT-263], for which the IC50 in the experiment with Huh-6, in the experiment on HepG2, in the experiment on HB-214 and with normal human hepatocytes was over 10 µM throughout.

On to `CNC(=O)CN1CCC(Oc2cc3c(Nc4cccc(Cl)c4F)ncnc3cc2OC)CC1` [AZD8931], for which the IC50 was over 10 µM in the experiment with Huh-6, over 10 µM in the experiment with HepG2, over 10 µM in the experiment with HB-214 and 1.45 µM in the experiment on normal human hepatocytes.

Regarding `Cn1c(=O)n(-c2ccc(C(C)(C)C#N)cc2)c2c3cc(-c4cnc5ccccc5c4)ccc3ncc21` [BEZ235], the IC50 was over 10 µM in the experiment on Huh-6, 0.478 µM in the experiment on HepG2, 0.61 µM in the experiment with HB-214 and 0.048 µM with normal human hepatocytes.

In the case of `COc1cc2nc(N3CCCN(C)CC3)nc(NC3CCN(Cc4ccccc4)CC3)c2cc1OC` [BIX 01294], the IC50 in the experiment on Huh-6 stood at 2.81 µM; in the experiment on HepG2, 2.9 µM; in the experiment on HB-214, 1.72 µM; in the experiment with normal human hepatocytes, 2.04 µM.

Consider `O=C(O)c1ccc2c(c1)nc(Nc1cccc(Cl)c1)c1ccncc12` [CX-4945], for which the IC50 with Huh-6 is 4.81 µM; with HepG2, 6.2 µM; in the experiment on HB-214, over 10 µM; with normal human hepatocytes it was over 10 µM.

On to `COc1ccc(C[C@@H](C)[C@@H](C)Cc2ccc(OC)c(OC)c2)cc1OC` [EM1421], for which the IC50 with Huh-6, in the experiment with HepG2, with HB-214 and with normal human hepatocytes was over 10 µM each time.

On to `CCOC(=O)CCNc1cc(N2CCc3ccccc3CC2)nc(-c2ccccn2)n1` [GSK-J4 HCl], for which the IC50 in the experiment on Huh-6 is 4.8 µM; in the experiment on HepG2, over 10 µM; in the experiment on HB-214, over 10 µM; in the experiment on normal human hepatocytes, over 10 µM.

As to `CC(C)n1nc(-c2ccc3oc(N)nc3c2)c2c(N)ncnc21` [INK 128], the IC50 in the experiment with Huh-6 came to 2.43 µM; with HepG2, 0.126 µM; in the experiment on HB-214, 0.001 µM; in the experiment on normal human hepatocytes it was 0.007 µM.

In the case of `CN[C@@H](C)C(=O)N[C@H](C(=O)N1CCC[C@H]1c1nc(C(=O)c2ccc(F)cc2)cs1)C1CCCCC1` [LCL161], the 50% inhibitory concentration (IC50) in the experiment with Huh-6, with HepG2, in the experiment on HB-214 and in the experiment with normal human hepatocytes was over 10 µM throughout.

Regarding `Cc1cc(-c2ncc(CC(=O)Nc3ccc(-c4cnccn4)cn3)cc2C)ccn1` [LGK974], the IC50 with Huh-6 is over 10 µM; with HepG2 it was over 10 µM; with HB-214, over 10 µM; in the experiment with normal human hepatocytes, 7.72 µM.

With `CCCc1c(OCCCOc2cc(O)c(-c3ccc(F)cc3)cc2CC)cccc1Oc1ccccc1C(=O)O` [LY293111], the IC50 in the experiment with Huh-6, in the experiment on HepG2, with HB-214 and in the experiment with normal human hepatocytes was over 10 µM in each case.

For the compound `O=C1NC(=O)C(c2cnc3ccccn23)=C1c1cn2c3c(cc(F)cc13)CN(C(=O)N1CCCCC1)CC2` [LY2090314], the IC50 in the experiment with Huh-6 was over 10 µM; in the experiment on HepG2, over 10 µM; in the experiment on HB-214, over 10 µM; in the experiment on normal human hepatocytes, 0.837 µM.

Consider `CC(C)(C)Cn1c(N)nc2ccc(-c3[nH]c(C(C)(C)C)nc3-c3ccc(F)cc3)nc21` [LY2228820], for which the IC50 with Huh-6 was over 10 µM; with HepG2, over 10 µM; with HB-214, over 10 µM; in the experiment with normal human hepatocytes it was 0.076 µM.

Take `COc1cccc(OCCCN)c1-c1cc(Nc2cnc(C#N)cn2)n[nH]1` [LY2606368]: the IC50 with Huh-6 is 5.27 µM; in the experiment with HepG2, 5.4 µM; in the experiment on HB-214 it was 4.7 µM; with normal human hepatocytes, over 10 µM.

Turning to `C[C@@H](Oc1ccc2[nH]nc(/C=C/c3cnn(CCO)c3)c2c1)c1c(Cl)cncc1Cl` [LY2874455], the IC50 with Huh-6 is over 10 µM; in the experiment on HepG2 it was over 10 µM; in the experiment on HB-214 it was over 10 µM; with normal human hepatocytes, 2.17 µM.

On to `CN(C(=O)c1ccc(F)cc1C(F)(F)F)C1CCN(c2nnc(-c3ccnn3C)c3ccccc23)CC1` [LY2940680], for which the IC50 with Huh-6, in the experiment on HepG2, with HB-214 and in the experiment with normal human hepatocytes was over 10 µM throughout.

With `C=CCn1c(=O)c2cnc(Nc3ccc(N4CCN(C)CC4)cc3)nc2n1-c1cccc(C(C)(C)O)n1` [MK-1775], the IC50 with Huh-6 is over 10 µM; in the experiment on HepG2, over 10 µM; in the experiment with HB-214, 1.18 µM; in the experiment with normal human hepatocytes it was over 10 µM.

In the case of `C[C@]1(O)C[C@@H](c2nc(-c3ccc4ccc(-c5ccccc5)nc4c3)c3c(N)nccn32)C1` [OSI-906], the IC50 with Huh-6 is over 10 µM; in the experiment on HepG2 it was over 10 µM; with HB-214, 1.8 µM; with normal human hepatocytes, 5.9 µM.

Take `CC(=O)c1c(C)c2cnc(Nc3ccc(N4CCNCC4)cn3)nc2n(C2CCCC2)c1=O` [PD 0332991]: the IC50 is over 10 µM with Huh-6, 6.07 µM with HepG2, 1.89 µM in the experiment on HB-214 and over 10 µM in the experiment with normal human hepatocytes.

With `CC(C)(C(=O)NCC(F)(F)C(F)(F)F)C(=O)N[C@@H]1C(=O)Nc2ccccc2-c2ccccc21` [RO4929097], the IC50 in the experiment on Huh-6, in the experiment with HepG2, in the experiment on HB-214 and with normal human hepatocytes was over 10 µM throughout.

Turning to `CCOc1cc(C(C)(C)C)ccc1C1=N[C@@](C)(c2ccc(Cl)cc2)[C@@](C)(c2ccc(Cl)cc2)N1C(=O)N1CCN(CCCS(C)(=O)=O)CC1` [RO5045337], the IC50 in the experiment with Huh-6 is over 10 µM; with HepG2, over 10 µM; with HB-214, 4.15 µM; in the experiment with normal human hepatocytes it was over 10 µM.

`CC(C)N(CCCNC(=O)Nc1ccc(C(C)(C)C)cc1)C[C@H]1O[C@@H](n2cc(Br)c3c(N)ncnc32)[C@H](O)[C@@H]1O` [SGC0946]: the IC50 is 1.56 µM in the experiment on Huh-6, 6.39 µM with HepG2, over 10 µM with HB-214 and 0.51 µM with normal human hepatocytes.

As to `CN1CCC(CNc2ccc3ncc(-c4cccc(OC(F)(F)F)c4)n3n2)CC1` [SGI-1776], the IC50 in the experiment on Huh-6 came out at 4.62 µM; with HepG2, 1.72 µM; in the experiment with HB-214, 1.53 µM; with normal human hepatocytes, 0.233 µM.

With `COCCn1c2c([n+](Cc3cnccn3)c1C)C(=O)c1ccccc1C2=O` [YM155], the half-inhibitory concentration (IC50) came out at 4.47 µM in the experiment with Huh-6, 0.124 µM in the experiment on HepG2, 0.26 µM in the experiment with HB-214 and 0.034 µM with normal human hepatocytes.

For `Cc1ccc(-c2cc(C(F)(F)F)nn2-c2ccc(S(N)(=O)=O)cc2)cc1` [celecoxib], the IC50 with Huh-6, in the experiment with HepG2, in the experiment with HB-214 and with normal human hepatocytes was over 10 µM throughout.

For the compound `C[C@@H](Oc1cc(-c2cnn(C3CCNCC3)c2)cnc1N)c1c(Cl)ccc(F)c1Cl` [crizotinib], the IC50 came out at 4.42 µM in the experiment on Huh-6, 2.17 µM in the experiment with HepG2, 7.64 µM in the experiment with HB-214 and 2.16 µM in the experiment on normal human hepatocytes.

For the compound `CCc1cnn2c(NCc3ccc[n+]([O-])c3)cc(N3CCCC[C@H]3CCO)nc12` [dinaciclib], the IC50 in the experiment with normal human hepatocytes was found to be 0.001 µM.

Regarding `CC(C)n1c(/C=C/C(O)CC(O)CC(=O)O)c(-c2ccc(F)cc2)c2ccccc21` (stereo not drawn) [fluvastatin], the IC50 is 4.44 µM in the experiment with Huh-6, over 10 µM with HepG2 and over 10 µM with HB-214.

As for `Cc1ccc(Nc2nccc(N(C)c3ccc4c(C)n(C)nc4c3)n2)cc1S(N)(=O)=O` [pazopanib], the IC50 in the experiment with Huh-6, with HepG2 and in the experiment with HB-214 was over 10 µM in each case.
